Data set [1] deals with Caco-2 cells. As to the kind of experiment: MTT cell viability assay. The format is cell-based, human. As to conditions: Caco-2, MTT, n = 10. The protocol:
A Caco-2 immortalized human adenocarcinoma cell line was purchased from The European Collection of Cell Cultures (ECACC). Cells were seeded and maintained in plastic cell culture flasks in Dulbecco's Modified […] medium (DMEM Sigma-Aldrich Ltd., Budapest, Hungary). Cell culturing media was supplemented with 2 mM L-glutamine, 100 mg/L gentamycin (Sigma-Aldrich Ltd., Budapest, Hungary) and 10% heat inactivated fetal bovine serum (FBS) (Sigma-Aldrich Ltd., Budapest, Hungary). Cells were stored in incubators at 37 °C in a 5% CO2 atmosphere. The colon epithelial Caco-2 cell line forms a single cell layer with well-defined tight junctions. Caco-2 cell viability was evaluated using the MTT method. Cells were harvested and seeded at a density of 10^4 cells/well on flat-bottom 96-well tissue culture plates. Cells were allowed to grow for 7 days under the abovementioned conditions. For the viability measurements, the DMEM was removed. […] Mitochondrial activity of the cells was determined after 3 h incubation with MTT at the concentration of 0.50 mg/mL. […] The absorbance of dissolved formazan crystals correlates with the ratio of the living cells. Absorbance was measured with a FLUOstar OPTIMA Micro-plate Reader (BMG LABTECH, Offenburg, Germany) at 570 nm against a 690 nm reference.
In general terms: Tetrazolium assays rely on reduction of a dye to a coloured formazan, in cell work by metabolically active cells.

The target in data set [2] is T1, pepsin (Sus scrofa, UniProt P00791).
T1 construct: purchased Sigma-Aldrich; host or cells: porcine gastric mucosa
Put plainly: Enzymatic stability in simulated gastric fluid (SGF) with pepsin. The format is in vitro ADME, porcine. As to conditions: SGF with pepsin, 37 °C, 100 rpm, 1 h; RIA; n = 3. The protocol:
(§1) Enzymatic degradation in the presence of proetolytic enzymes pepsin and pancreatin was investigated. Peptide-loaded particles were added to 100 mL of artificial gastric fluid (simulated gastric fluid—SGF) with pepsin, or artificial intestinal fluid (simulated intestinal fluid—SIF) with pancreatin and incubated at 37 °C under moderate stirring at 100 rpm. SGF and SIF were prepared as per European Pharmacopoeia specifications. A total of 1000 µL samples were collected at determined time intervals for 120 min, and an equal volume of ice-cold reagent was added to stop the enzymatic reaction (0.10 M NaOH for SGF and 0.10 M HCl for SIF). Samples were analyzed by radioimmunoassay.

Data set [3] concerns T2, pepsin.
T2 construct: purchased Sigma-Aldrich; host or cells: porcine gastric mucosa
Described as above. To be noted: pig, simulated gastric fluid (SGF) with pepsin; SGF with pepsin (Ph. Eur.), 37 °C, 100 rpm, 30 min; RIA; mean ± SD, n = 3; read-out: active MCH measured after incubation in SGF. It is filed as in vitro ADME, porcine. The protocol: as §1

Data set [4] concerns pancreatin. Put plainly: Enzymatic stability in simulated intestinal fluid (SIF) with pancreatin. The format is in vitro ADME, porcine. As to conditions: 37 °C, 100 rpm, RIA, mean ± SD, n = 3. The protocol:
as §1

We go through three compounds from article PMC8778866, “Oral Bioavailability Enhancement of Melanin Concentrating Hormone, Development and In Vitro Pharmaceutical Assessment of Novel Delivery Systems” (Pharmaceutics, 2021).

T1 sequence (P00791 60-385): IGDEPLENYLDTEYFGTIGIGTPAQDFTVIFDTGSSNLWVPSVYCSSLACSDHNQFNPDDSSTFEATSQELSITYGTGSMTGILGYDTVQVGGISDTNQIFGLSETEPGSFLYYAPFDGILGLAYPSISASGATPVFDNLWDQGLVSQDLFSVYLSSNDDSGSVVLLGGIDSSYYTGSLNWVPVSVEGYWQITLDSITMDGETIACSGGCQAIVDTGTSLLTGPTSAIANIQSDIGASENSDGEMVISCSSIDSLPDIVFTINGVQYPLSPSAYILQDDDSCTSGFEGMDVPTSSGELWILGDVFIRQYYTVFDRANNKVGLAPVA

Turning to `O.O.[Ca+2].[Cl-].[Cl-]` [calcium-chloride dihydrate, Calcium chloride dihydrate], in data set [1] (30 min incubation, also at higher concentrations), the “toxicity in MTT assay (in words)” value is “did not show relevant toxicity”.

As to `CCOCCOCCO` [Transcutol HP, Diethylene glycol monoethyl ether], the “IC50 (cytotoxicity)” value in data set [1] (30 min incubation with sample, 3 h MTT 0.50 mg/mL, absorbance 570 nm) stood at 0.37 v/v%.

Turning to `CSCC[C@@H]1NC(=O)[C@@H](NC(=O)[C@H](CCCNC(=N)N)NC(=O)[C@H](CC(C)C)NC(=O)[C@H](CCSC)NC(=O)[C@H](CC(=O)O)NC(=O)[C@H](Cc2ccccc2)NC(=O)[C@@H](N)CC(=O)O)CSSC[C@@H](C(=O)N[C@@H](Cc2c[nH]c3ccccc23)C(=O)N[C@@H](CCC(N)=O)C(=O)N[C@H](C(=O)O)C(C)C)NC(=O)[C@@H]2CCCN2C(=O)[C@H](CCCNC(=N)N)NC(=O)[C@H](Cc2ccc(O)cc2)NC(=O)[C@H](C(C)C)NC(=O)[C@H](CCCNC(=N)N)NC(=O)CNC(=O)[C@H](CC(C)C)NC1=O` [MCH, Melanin concentrating hormone], in data set [2], the “degradation after incubation in SGF” value is “completely degraded”. Besides, the remaining at 0.5 h in data set [3] was 3 ± 0.5%; in data set [4] (pig, simulated intestinal fluid (SIF) with pancreatin, SIF with pancreatin (Ph. Eur.), 30 min, read-out: active MCH measured after incubation in SIF), 8 ± 0.5%. The “MCH recovery after incubation with SIF” value in data set [4] (SIF with pancreatin, 2 h) is listed as 1.00 ± 0.50%.
